Reference: patent US20110112151A1, “COMPOUND CAPABLE OF INHIBITING 11-BETA HYDROXYSTERIOD DEHYDROGENASE” (priority 2008, published 2011)
Read-outs that look alike come from different tables or passages of the source.

Assays:
11β-HSD1 = biological target: T1, 11β-HSD1 (Homo sapiens, UniProt P28845); test: 11β-HSD1 HEK assay (cell based assay, SPA)
T1 construct: expressed in transfected cells; host or cells: HEK 293 (stably transfected, HEK 293/HSD11B1)
Method: 11β-HSD1 HEK Assay Protocol (Cell Based Assay)
11β-HSD1 activity is measured in whole HEK 293 cells stably transfected with the HSD11B1 gene. Cells are incubated in 96-well microplates in the presence of tritiated substrate. Enzyme activity is determined by measuring the amount of tritated product by scintillation proximity assay (SPA). Assay plates contain internal high and low controls to allow calculation of percentage inhibition.
1. […] 2. When the cells are 80% confluent the medium is removed from each well. 100 μl fresh, serum-free, medium containing ^3H-cortisone and test compound in 1% DMSO is added to each well*. Control wells are also dispensed. […] 3. The plate is incubated at 37° C. for the required time period. 4. 50 μl of media is removed from each well and transferred to a microplate containing 100 μl of a pre-incubated mixture of anti-cortisol antibody and SPA bead. The mixture is incubated with gentle shaking until equilibrium is reached, before transferring to a scintillation counter to establish the enzyme activity in each sample.
10 μl of compound is dispensed into each well of a 96-well microplate in 10% DMSO at 100 μM concentration. 90 μl media containing ^3H-cortisone is added to each well. The compound/media/substrate mixture is then transferred to the assay plate containing the cells. […]

[1] = HEK293, at 1 μM, whole HEK 293 cells stably transfected with the HSD11B1 gene, 3H-cortisone substrate, read-out: Activity (inhibition of 11β-HSD1)

T1 sequence (P28845 whole entry): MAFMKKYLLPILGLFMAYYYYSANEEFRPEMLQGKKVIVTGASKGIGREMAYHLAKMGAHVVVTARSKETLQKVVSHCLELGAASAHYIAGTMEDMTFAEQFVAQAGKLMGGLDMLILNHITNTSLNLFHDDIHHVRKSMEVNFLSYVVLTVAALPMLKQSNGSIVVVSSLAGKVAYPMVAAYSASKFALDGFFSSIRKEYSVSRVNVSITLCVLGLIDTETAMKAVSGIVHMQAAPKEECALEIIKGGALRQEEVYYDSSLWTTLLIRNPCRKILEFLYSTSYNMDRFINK

Structure (SMILES)	inhibition at 1 µM (11β-HSD1; [1])	melting point	inhibition at 1 µM (11β-HSD1; HEK293, read-out: Activity (inhibition of 11β-HSD1))	Activity (inhibition of 11β-HSD1) (11β-HSD1; at 1 μM, whole HEK 293 cells stably transfected with the HSD11B1 gene, 3H-cortisone substrate)
O=C(CSCc1cccnc1)C12CC3CC(CC(C3)C1)C2 [Example 7, 1-Adamantan-1-yl-2-(pyridin-3-ylmethylsulfanyl)-ethanone]	> 60%	45 to 47 °C		
O=C(C[S+]([O-])Cc1ccccn1)C12CC3CC(CC(C3)C1)C2 (stereo not shown) [Example 17, 1-Adamantan-1-yl-2-(pyridin-2-ylmethanesulfinyl)-ethanone]	> 60%	87 to 88.5 °C		
Cc1nnc(SCC(=O)C23CC4CC(CC(C4)C2)C3)s1 [Example 78, 1-Adamantan-1-yl-2-(5-methyl-[1,3,4]thiadiazol-2-ylsulfanyl)-ethanone]		102 to 105 °C	> 60%	
Cn1nnnc1SCC(=O)C12CC3CC(CC(C3)C1)C2 [Example 92, 1-(Adamantan-1-yl)-2-[(1-methyl-1,2,3,4-tetrazol-5-yl)sulfanyl]ethanone]	> 60%	112 to 113 °C		
Cn1ccnc1[S+]([O-])C(C)(C)C(=O)C12CC3CC(CC(C3)C1)C2 (stereo not shown) [Example 15, 1-Adamantan-1-yl-2-methyl-2-(1-methyl-1H-imidazole-2-sulfinyl)-propan-1-one]	< 20%	98 to 102 °C		
Cn1c(SCC(=O)C23CC4CC(CC(C4)C2)C3)nc2ccccc21 [Example 14, 1-Adamantan-1-yl-2-(1-methyl-1H-benzoimidazol-2-ylsulfanyl)-ethanone]	< 20%	146 to 147.5 °C		
CN(C)C(=O)c1ccc(SCC(=O)C23CC4CC(CC(C4)C2)C3)nc1 [Example 35, 6-(2-Adamantan-1-yl-2-oxo-ethylsulfanyl)-N,N-dimethyl-nicotinamide]	> 60%	62.5 to 64.5 °C		
O=C(Nc1nnc(SCC(=O)C23CC4CC(CC(C4)C2)C3)s1)C1CC1 [Example 95, N-(5-{[2-(Adamantan-1-yl)-2-oxoethyl]sulfanyl}-1,3,4-thiadiazol-2-yl)cyclopropanecarboxamide]	20 to 60%	218 to 219 °C		
CC(=O)Nc1nnc(SCC(=O)C23CC4CC(CC(C4)C2)C3)s1 [Example 91, N-(5-{[2-(Adamantan-1-yl)-2-oxoethyl]sulfanyl}-1,3,4-thiadiazol-2-yl)acetamide]	> 60%	208 to 210 °C		
O=C(CS(=O)(=O)c1ccncc1)C12CC3CC(CC(C3)C1)C2 [Example 32, 1-(adamantan-1-yl)-2-(pyridine-4-sulfonyl)ethan-1-one]	> 60%	143 to 144 °C		
O=C(CCc1cccnc1)C12CC3CC(CC(C3)C1)C2 [Example 39, 1-Adamantan-1-yl-3-pyridin-3-yl-propan-1-one]	> 60%	43 to 44.5 °C		
O=C(CSCc1ccccn1)C12CC3CC(CC(C3)C1)C2 [Example 11, 1-Adamantan-1-yl-2-(pyridin-2-ylmethylsulfanyl)-ethanone]	> 60%	38 to 39 °C		
O=C(CSCc1ccc(Cl)nc1)C12CC3CC(CC(C3)C1)C2 [Example 62, 1-Adamantan-1-yl-2-(6-chloro-pyridin-3-ylmethylsulfanyl)-ethanone]	20 to 60%	88 to 90 °C		
COCc1nnc(SCC(=O)C23CC4CC(CC(C4)C2)C3)n1C [Example 107, 1-(Adamantan-1-yl)-2-{[5-(methoxymethyl)-4-methyl-4H-1,2,4-triazol-3-yl]sulfanyl}ethan-1-one]	> 60%	109 to 111 °C		
Cc1nnc(SCC(=O)C23CC4CC(CC(C4)C2)C3)n1Cc1ccc(Cl)cc1 [Example 105, 1-(Adamantan-1-yl)-2-({4-[(4-chlorophenyl)methyl]-5-methyl-4H-1,2,4-triazol-3-yl}sulfanyl)ethan-1-one]	20 to 60%	158 to 159 °C		
O=C(/C=C/c1cccnc1)C12CC3CC(CC(C3)C1)C2 [Example 38, 1-Adamantan-1-yl-3-pyridin-3-yl-propenone]	> 60%	107 to 108.5 °C		
O=C(CS(=O)(=O)Cc1ccc(Cl)nc1)C12CC3CC(CC(C3)C1)C2 [Example 64, 1-Adamantan-1-yl-2-(6-chloro-pyridin-3-ylmethanesulfonyl)-ethanone]	> 60%	159 to 161 °C		
O=C(Nc1nnc([S+]([O-])CC(=O)C23CC4CC(CC(C4)C2)C3)s1)C1CC1 (stereo not shown) [Example 96, N-(5-{[2-(Adamantan-1-yl)-2-oxoethane]sulfinyl}-1,3,4-thiadiazol-2-yl)cyclopropanecarboxamide]	> 60%	172.5 to 174 °C		

Structure (SMILES)	inhibition at 1 µM (11β-HSD1; [1])	melting point	inhibition at 1 µM (11β-HSD1; HEK293, read-out: Activity (inhibition of 11β-HSD1))	Activity (inhibition of 11β-HSD1) (11β-HSD1; at 1 μM, whole HEK 293 cells stably transfected with the HSD11B1 gene, 3H-cortisone substrate)
Cn1c(SCC(=O)C23CC4CC(CC(C4)C2)C3)nnc1C1CC1 [Example 101, 1-(Adamantan-1-yl)-2-[(5-cyclopropyl-4-methyl-4H-1,2,4-triazol-3-yl)sulfanyl]ethan-1-one]	> 60%	96 to 97.5 °C		
O=C(C[S+]([O-])Cc1cccnc1)C12CC3CC(CC(C3)C1)C2 (stereo not shown) [Example 8, 1-Adamantan-1-yl-2-(pyridin-3-ylmethanesulfinyl)-ethanone]	> 60%	116 to 119 °C		
Cn1c(SCC(=O)C23CC4CC(CC(C4)C2)C3)nnc1-c1cccs1 [Example 102, 1-(Adamantan-1-yl)-2-{[4-methyl-5-(thiophen-2-yl)-4H-1,2,4-triazol-3-yl]sulfanyl}ethan-1-one]	> 60%	156 to 157 °C		
O=C(CSc1n[nH]c(-c2ccccc2)n1)C12CC3CC(CC(C3)C1)C2 [Example 89, 1-(Adamantan-1-yl)-2-[(5-phenyl-1H-1,2,4-triazol-3-yl)sulfanyl]ethanone]	< 20%	187 to 188 °C		
O=C(COc1cccnc1)C12CC3CC(CC(C3)C1)C2 [Example 61, 1-Adamantan-1-yl-2-(pyridin-3-yloxy)-ethanone]	> 60%	73 to 75 °C		
Cn1cnnc1[S+]([O-])CC(=O)C12CC3CC(CC(C3)C1)C2 (stereo not shown) [Example 63, 1-Adamantan-1-yl-2-(4-methyl-4H-[1,2,4]triazole-3-sulfinyl)-ethanone]	> 60%	124.5 to 127 °C		
CCNC(=O)c1ccc(SCC(=O)C23CC4CC(CC(C4)C2)C3)nc1 [Example 34, 6-{[2-(adamantan-1-yl)-2-oxoethyl]sulfanyl}-N-ethylpyridine-3-carboxamide]	> 60%	135.5 to 137 °C		
Cc1cc(C)c(C(=O)COc2ccc(C)nc2)c(C)c1 [Example 70, 2-(6-Methyl-pyridin-3-yloxy)-1-(2,4,6-trimethyl-phenyl)-ethanone]	< 20%			
Cn1ccnc1SCC(=O)C1(c2ccc(Cl)cc2)CC1 [Example 1, 1-[1-(4-Chloro-phenyl)-cyclopropyl]-2-(1-methyl-1H-imidazol-2-ylsulfanyl)-ethanone]	> 60%			
O=C(COc1ccc(C(F)(F)F)cn1)C12CC3CC(CC(C3)C1)C2 [Example 55, 1-Adamantan-1-yl-2-(5-trifluoromethyl-pyridin-2-yloxy)-ethanone]	20 to 60%			
Cc1nnc([S+]([O-])CC(=O)C23CC4CC(CC(C4)C2)C3)s1 (stereo not shown) [Example 80, 1-Adamantan-1-yl-2-(5-methyl-[1,3,4]thiadiazole-2-sulfinyl)-ethanone]	> 60%			
Cn1ccnc1SCC(=O)C1(c2ccc(Cl)cc2)CCCCC1 [Example 40, 1-[1-(4-Chloro-phenyl)-cyclohexyl]-2-(1-methyl-1H-imidazol-2-ylsulfanyl)-ethanone]	20 to 60%			
O=C(COCc1ccccn1)C1(c2ccc(Cl)cc2)CCC1 [Example 42, 1-[1-(4-Chloro-phenyl)-cyclobutyl]-2-(pyridin-2-ylmethoxy)-ethanone]	< 20%			
Cn1ccnc1S(=O)(=O)CC(=O)C1(c2ccc(Cl)cc2)CCCCC1 [Example 45, 1-[1-(4-Chloro-phenyl)-cyclohexyl]-2-(1-methyl-H-imidazole-2-sulfonyl)-ethanone]				b (from 20 to 60% inhibition of 11β-HSD1 at 1 μM)
Cn1ccnc1SCC(=O)C(C)(C)c1ccc(Cl)cc1 [Example 52, 3-(4-Chloro-phenyl)-3-methyl-1-(1-methyl-1H-imidazol-2-ylsulfanyl)-butan-2-one]	> 60%			
COc1cncc(COCC(=O)C23CC4CC(CC(C4)C2)C3)c1 [Example 98, 1-Adamantan-1-yl-2-(5-methoxy-pyridin-3-ylmethoxy)-ethanone]	> 60%			
COc1ccncc1COCC(=O)C12CC3CC(CC(C3)C1)C2 [Example 85, 2-((4-methoxypyridin-3-yl)methoxy)-1-adamantylethanone]	> 60%			
Cn1ccnc1[S+]([O-])CC(=O)C1(c2ccc(Cl)cc2)CCCC1 (stereo not shown) [Example 44, 1-[1-(4-Chloro-phenyl)-cyclopentyl]-2-(1-methyl-1H-imidazole-2-sulfinyl)-ethanone]	20 to 60%			
